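Here, GI50 denotes the concentration required for 50% inhibition of growth. TGI: total growth inhibition.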
What was measured:
Experiment in all cases: DTP human tumour cell line panel, 384-well format
[1] = system: SK-MEL-5 melanoma
[2] = system: NCI-H23 lung
[3] = system: SNB-19 CNS
[4] = system: MCF7 breast
[5] = system: LOX IMVI melanoma
[6] = system: ACHN renal
[7] = system: OVCAR-4 ovarian
[8] = system: SF-295 CNS
[9] = system: MDA-MB-435 melanoma
[10] = system: M14 melanoma
[11] = system: CAKI-1 renal
[12] = system: HL-60(TB) leukemia
[13] = system: KM12 colon
[14] = system: MALME-3M melanoma
[15] = system: OVCAR-3 ovarian
[16] = system: UACC-62 melanoma
[17] = system: SN12C renal
[18] = system: CCRF-CEM leukemia
[19] = system: UACC-257 melanoma
[20] = system: NCI-H226 lung
[21] = system: K-562 leukemia
[22] = system: SK-MEL-28 melanoma
[23] = system: NCI-H522 lung
[24] = system: HCT-116 colon
[25] = system: HS 578T breast
[26] = system: MDA-MB-468 breast
[27] = system: RPMI-8226 leukemia
[28] = system: HCC-2998 colon
[29] = system: EKVX NSCLC
[30] = system: MOLT-4 leukemia
[31] = system: SK-MEL-2 melanoma
[32] = system: SF-268 CNS
[33] = system: COLO 205 colon
[34] = system: SF-539 CNS
[35] = system: DU-145 prostate
[36] = system: HOP-62 NSCLC
[37] = system: TK-10 renal
[38] = system: A498 renal
[39] = system: HOP-92 NSCLC
[40] = system: NCI-H322M lung
[41] = system: NCI/ADR-RES ovarian
[42] = system: SK-OV-3 ovarian
[43] = system: HCT-15 colon
[44] = system: RXF 393 renal
[45] = system: OVCAR-8 ovarian
[46] = system: SW-620 colon
[47] = system: A549 NSCLC
[48] = system: NCI-H460 NSCLC
[49] = system: 786-0 renal
[50] = system: SNB-75 CNS
[51] = system: BT-549 breast
[52] = system: PC-3 prostate
[53] = system: IGROV1 ovarian
[54] = system: HT29 colon
[55] = system: U251 glioblastoma

Work on `CN(C)CC(C)(CN(C)C)C(=O)/C=C/c1c(Cl)cccc1Cl` yielded a GI50 [1] of 1.39 µM, a TGI [1] of 2.98 µM and a GI50 [2] of 2.47 µM. The TGI [2] was 5.04 µM, the GI50 [3] was 4.18 µM and the TGI [3] was 12.4 µM. The GI50 [4] was 0.512 µM, the TGI [4] was 1.76 µM and the GI50 [5] was 1.67 µM. The TGI [5] was 3.15 µM, the GI50 [6] was 1.88 µM and the TGI [6] was 3.31 µM. For the same compound, the GI50 [7] was 1.81 µM, the TGI [7] was 3.21 µM and the GI50 [8] was 11.4 µM. The TGI [8] was 23.6 µM, the GI50 [9] was 3.9 µM and the TGI [9] was 11.6 µM. It also gave a GI50 [10] of 2.09 µM, a TGI [10] of 4 µM and a GI50 [11] of 1.81 µM. It also gave a TGI [11] of 3.23 µM, a GI50 [12] of 1.01 µM and a TGI [12] of 2.18 µM. For the same compound, the GI50 [13] was 1.22 µM, the TGI [13] was 2.92 µM and the GI50 [14] was 2.16 µM. For the same compound, the TGI [14] was 3.61 µM, the GI50 [15] was 1.91 µM and the TGI [15] was 3.37 µM. The GI50 [16] was 2.16 µM, the TGI [16] was 4.2 µM and the GI50 [17] was 1.88 µM. The TGI [17] was 3.29 µM, the GI50 [18] was 1.58 µM and the TGI [18] was 2.96 µM. For the same compound, the GI50 [19] was 1.95 µM, the TGI [19] was 3.81 µM and the GI50 [20] was 1.76 µM. It also gave a TGI [20] of 3.34 µM, a GI50 [21] of 4.98 µM and a TGI [21] of 15.9 µM. The GI50 [22] was 10 µM, the TGI [22] was 21.7 µM and the GI50 [23] was 1.71 µM. It also gave a TGI [23] of 3.09 µM, a GI50 [24] of 2.03 µM and a TGI [24] of 3.53 µM. It also gave a GI50 [25] of 2.17 µM, a TGI [25] of 4.24 µM and a GI50 [26] of 2.1 µM. The TGI [26] was 3.59 µM, the GI50 [27] was 0.2 µM and the TGI [27] was 0.346 µM. The GI50 [28] was 2.24 µM, the TGI [28] was 6.9 µM and the GI50 [29] was 4.28 µM. It also gave a TGI [29] of 14.1 µM, a GI50 [30] of 1.54 µM and a TGI [30] of 2.89 µM. The GI50 [31] was 2.07 µM, the TGI [31] was 3.54 µM and the GI50 [32] was 5.61 µM. The TGI [32] was 15.8 µM, the GI50 [33] was 2.17 µM and the TGI [33] was 3.66 µM. It also gave a GI50 [34] of 1.9 µM, a TGI [34] of 3.33 µM and a GI50 [35] of 5.18 µM. For the same compound, the TGI [35] was 16 µM, the GI50 [36] was 2.32 µM and the TGI [36] was 3.96 µM. It also gave a GI50 [37] of 1.61 µM, a TGI [37] of 3.12 µM and a GI50 [38] of 2.29 µM. It also gave a TGI [38] of 4.6 µM, a GI50 [39] of 2.17 µM and a TGI [39] of 3.65 µM. It also gave a GI50 [40] of 3.86 µM, a TGI [40] of 12.3 µM and a GI50 [41] of 2.14 µM. It also gave a TGI [41] of 3.82 µM, a GI50 [42] of 4.38 µM and a TGI [42] of 15.4 µM. For the same compound, the GI50 [43] was 1.86 µM, the TGI [43] was 3.33 µM and the GI50 [44] was 2.13 µM. For the same compound, the TGI [44] was 3.59 µM, the GI50 [45] was 1.95 µM and the TGI [45] was 3.41 µM. The GI50 [46] was 2.01 µM, the TGI [46] was 3.48 µM and the GI50 [47] was 3.72 µM. The TGI [47] was 13.2 µM, the GI50 [48] was 1.97 µM and the TGI [48] was 3.59 µM. It also gave a GI50 [49] of 1.79 µM, a TGI [49] of 3.22 µM and a GI50 [50] of 5.16 µM. The TGI [50] was 11.3 µM, the GI50 [51] was 2.52 µM and the TGI [51] was 5.73 µM. For the same compound, the GI50 [52] was 2.52 µM, the TGI [52] was 5.2 µM and the GI50 [53] was 1.87 µM. The TGI [53] was 3.36 µM, the GI50 [54] was 1.87 µM and the TGI [54] was 3.41 µM. For the same compound, the GI50 [55] was 2.12 µM and the TGI [55] was 3.74 µM.

— PubChem BioAssay (NCI)
